Laboratory results: PMC7822874, “Chemoprotective antimalarials identified through quantitative high-throughput screening of Plasmodium blood and liver stage parasites” (Scientific Reports, 2021)
Several values for one entry are separate records, joined by “and”; a condition that tells them apart may be missing. Equal values may be shown once. Read-outs that look alike come from different tables or passages of the source.

Columns and labels:
[1] = system: HepG2-A16-CD81EGFP cells; settings: average of 2 wells; for HepG2 viability signal, 3 uM, repeat 2: nominal 3 uM (10 mM stock), 4.5 uM for 15 mM, 3.6 uM for 12 mM, 6 uM for 20 mM stock
[2] = system: Plasmodium falciparum Dd2 asexual blood stage parasites; test: microbe, parasite or virus in culture; parameters: species or system Plasmodium falciparum Dd2 in human erythrocytes; single determination (one 11-point concentration-response curve); settings: Plasmodium falciparum, DD2, Erythrocyte, 72 h; read-out: AC50
[3] = in vitro; settings: human, n = 1
[4] = system: P. berghei-ANKA-GFP-LucCON liver stage parasites in HepG2-A16-CD81EGFP cells; test: P. berghei liver stage Pb-Luc assay, Method 1 (UCSD, 1536-well); on Pb-Luc signal, 1 uM, repeat 1: reference of the scale not given here; on Pb-Luc signal, 1 uM, repeat 2: reference of the scale not given here; on Pb-Luc signal, 1 uM, repeat 3: reference of the scale not given here; on Pb-Luc signal, 3 uM, repeat 1: reference of the scale not given here; on Pb-Luc signal, 3 uM, repeat 2: reference of the scale not given here; on Pb-Luc signal, 3 uM, repeat 3: reference of the scale not given here; assay type: cell-based, Plasmodium berghei; settings: for Max Resp (signal direction of the dose response): Decrease = decreasing P. berghei viability with dose, Increase = increasing signal, Inactive = no dose response; for activity at 1 µM / activity at 3 µM: 48 h, average of 2 wells, 1536-well plate; for activity at 1 µM: nominal 1 uM (10 mM stock), […] for 15 mM, 1.2 uM for 12 mM, 2 uM for 20 mM stock; for activity at 3 µM: nominal 3 uM (10 mM stock), 4.5 uM for 15 mM, 3.6 uM for 12 mM, 6 uM for 20 mM stock
[5] = system: luciferase-expressing P. berghei liver stage parasites in HepG2 cells; test: Inhibition of liver-stage development assay (ILSDA), Method 2 (WRAIR, 96-well); assay type: cell-based, Plasmodium berghei; settings: for AC50: Plasmodium berghei, HepG2, Method 2
[6] = system: T1, Plasmodium falciparum Dd2-attB-ScDHODH (transgenic line expressing yeast DHODH), asexual blood stages; test: organism not typed; parameters: replicate k of 3 (each line is one of three independent assays; the three lines of one compound and parasite line follow each other); settings: 72 h, n = 1
T1 construct: Dd2-attB-ScDHODH, the transgenic line that expresses yeast DHODH
Method in brief: (§1)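 We compare activity in parasites carrying fumarate-using yeast DHODH with that in the parental line; mETC or parasite DHODH inhibitors are bypassed by this enzyme. Data come from three independent assays, analysed by two-sided Student's t-tests.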

[7] = system: T2, Plasmodium falciparum Dd2-attB (parental line), asexual blood stages; test: microbe, parasite or virus in culture; parameters: replicate k of 3 (each line is one of three independent assays; the three lines of one compound and parasite line follow each other); settings: n = 1; for Individual replicates / Log AC50 (M): 72 h; for AC50: Plasmodium falciparum, DD2, 72 h, read-out: Individual replicates / Log AC50 (converted)
T2 construct: Dd2-attB, the isogenic parental line
Method in brief: as §1

[8] = in vitro; settings: human, HepG2-A16-CD81EGFP cells, uninfected
[9] = nominal 1 uM (10 mM stock), […] for 15 mM, 1.2 uM for 12 mM, 2 uM for 20 mM stock
[10] = Plasmodium berghei, repeat 1, read-out: Pb-Luc signal, 1 uM, repeat 1
[11] = Plasmodium berghei, repeat 2, read-out: Pb-Luc signal, 1 uM, repeat 2
[12] = Plasmodium berghei, repeat 3, read-out: Pb-Luc signal, 1 uM, repeat 3
[13] = Plasmodium berghei, repeat 1, read-out: Pb-Luc signal, 3 uM, repeat 1
[14] = Plasmodium berghei, repeat 2, read-out: Pb-Luc signal, 3 uM, repeat 2
[15] = Plasmodium berghei, repeat 3, read-out: Pb-Luc signal, 3 uM, repeat 3
[16] = Plasmodium berghei, Method 1, Hill fit, 50% of maximum activity response, read-out: AC50
[17] = Plasmodium berghei, Method 1, log10 of molar AC50 from Hill fit, read-out: Log AC50 (converted)

| SMILES | HepG2 viability signal, 1 uM, repeat 2 [1, 9] [%] | HepG2 viability signal, 3 uM, repeat 2 [1] [%] | AC50 [2] [µM] | Max Resp (signal direction of the dose response) ([4]; Method 1) | activity at 1 µM [4, 10] [%] | activity at 1 µM [4, 11] [%] | activity at 1 µM [4, 12] [%] | activity at 3 µM [4, 13] [%] | activity at 3 µM [4, 14] [%] | activity at 3 µM [4, 15] [%] | CC50 at 48 h ([3]; HepG2 cells) [µM] | Individual replicates / Log AC50 (M) [6] | Individual replicates / Log AC50 (M) [7] | AC50 [7] [µM] | further results |
| --- | --- | --- | --- | --- | --- | --- | --- | --- | --- | --- | --- | --- | --- | --- | --- |
| COc1ccc(C2C=C(c3ccc(Cl)cc3)Nc3nc(-c4ccc(Cl)cc4)nn32)cc1 (stereo not drawn) [NCGC00100531-01] | 96.07 | 80.71 | 0.237 | Inactive | 88.1 | 81 | 70.8 | 5.3 | 3.16 | 51.4 | – | – | – | – | HepG2 viability signal, 1 uM, repeat 1 ([1]; nominal 1 uM (10 mM stock), […] for 15 mM, 1.2 uM for 12 mM, 2 uM for 20 mM stock, repeat 1): 97.18%; CC50 at 48 h ([3]; hepg2): 15.3 µM |
| O=C(Nc1ccc(Br)cc1)c1ccc(F)c([S+](=O)([O-])NC2CCCCCC2)c1 [NCGC00139407-01] | – | – | 9.44 | Decrease | – | – | – | – | – | – | 13.7 | – | – | – | Max Resp (signal direction of the dose response) ([5]; Method 2, Decrease = decreasing P. berghei viability with dose, Increase = increasing signal, Inactive = no dose response): Decrease; AC50 ([5]; Hill fit, 50% of maximum activity response, read-out: AC50): 0.631 µM; AC50 ([5]; log10 of molar AC50 from Hill fit, read-out: Log AC50 (converted)): 0.631 µM; AC50 ([4]; Method 1, Hill fit, 50% of maximum activity response, read-out: AC50): 1.12 µM; Log AC50 (M) ([4]; Method 1, log10 of molar AC50 from Hill fit): -5.950 M; AC50 [4, 16]: 0.562 µM; AC50 [4, 17]: 0.562 µM |
| Oc1c(CNc2ccccc2)cc(COCc2ccccc2)c2cccnc12 [NCGC00183370-01] | – | – | – | – | – | – | – | – | – | – | 21.7 | -4.7986 Log AC50 (M) | -5.0486 Log AC50 (M) | 11.3 | AC50 ([6]; read-out: Individual replicates / Log AC50 (converted)): 14.2 µM |
| Oc1c(CN2CCCC2)cc(COCc2ccccc2)c2cccnc12 [NCGC00183371-01] | – | – | 6.68 | – | – | – | – | – | – | – | 8.62 | -4.7986 Log AC50 (M) and -5.1486 Log AC50 (M) | -5.2986 Log AC50 (M) and -5.1986 Log AC50 (M) | 3.99 | – |
| CN(C)C1CCN(Cc2cc(COCc3ccccc3)c3cccnc3c2O)C1 (stereo not drawn) [NCGC00183372-01] | – | – | – | – | – | – | – | – | – | – | 21.7 | -5.2986 Log AC50 (M) and -5.1986 Log AC50 (M) and -4.7986 Log AC50 (M) | -5.2486 Log AC50 (M) and -5.1486 Log AC50 (M) | 5.03 | – |
| COc1ccc(CN[C@@H]2C=C[C@@H](c3c(C)nn(-c4ccc(OC)cc4)c3C)C2)cc1 [NCGC00401425-01] | 96.20 | 99.98 | 4.85 | – | 79.1 | 135 | 59 | 56.4 | 76.7 | 51.8 | 39.6 | – | – | – | viability at 48 h, 1 µM [8]: 100%; viability at 48 h, 3 µM [8]: 99.3% |
| Cc1nn2c(c1-c1ccccc1-c1ccccc1)N(Cc1ccc(O)cc1)CCC2 [NCGC00420512-01] | 99.38 | 110.31 | 0.485 | Decrease | 76.6 | 69.5 | 95.1 | 15.6 | 15.8 | 40.5 | 28 | – | – | – | viability at 48 h, 1 µM [8]: 96.5%; viability at 48 h, 3 µM [8]: 112%; AC50 [4, 16]: 1.58 µM; AC50 [4, 17]: 1.58 µM |
